Laboratory results published in PMC5547389, “Structure-activity relationships and molecular docking studies of chromene and chromene based azo chromophores: A novel series of potent antimicrobial and anticancer agents” (EXCLI Journal, 2017).
In brackets after ≈: the same amount, converted by molar mass.

How the values were obtained:
[1] = test system: Human colon carcinoma (HCT-116); assay: Cytotoxic screening; type: cell-based; conditions: HCT-116; for IC50: Homo sapiens, read-out: IC50 HCT-116
Protocol: (§1) Human colon carcinoma (HCT-116), human hepatocellular carcinoma (HEPG-2), adenocarcinomic human alveolar basal epithelial cell (A-549), and human breast adenocarcinoma (MCF-7) cell lines were obtained from the American Type Culture Collection (ATCC, Rockville, MD). The cells were grown on RPMI-1640 medium supplemented with 10 % inactivated fetal calf serum and 50 µg/ml gentamycin. The cells were maintained at 37 °C in a humidified atmosphere with 5 % CO2 and were subcultured two to three times a week. Potential cytotoxicity of the compounds was evaluated on tumor cells using the method of Gangadevi and Muthumary (2007[21]) (Klancnik et al., 2010[36]). The cells were grown as monolayers in growth RPMI-1640. The monolayers of 104 cells adhered at the bottom of the wells in a 96-well microtiter plate incubated for 24 h at 37 °C in a humidified incubator with 5 % CO2. The monolayers were then washed with sterile phosphate buffered saline (0.01 M pH 7.2) and simultaneously the cells were treated with 100 µL from different dilutions of tested sample in fresh maintenance medium and incubated at 37 °C. A control of untreated cells was made in the absence of tested sample. Positive controls containing doxorubicin were also tested as a reference drug for comparison. Six wells were used for each concentration of the test sample. Every 24 hours an observation under the inverted microscope was made. The number of the surviving cells was determined by staining the cells with crystal violet (Mosmann, 1983[42]; Gangadevi and Muthumary, 2007[21]) followed by cell lysing using 33 % glacial acetic acid and reading the absorbance at 590 nm using microplate reader (SunRise, TECAN, Inc, USA) after well mixing. The absorbance values from untreated cells were considered as 100 % proliferation. The number of viable cells was determined using microplate reader as previously mentioned before and the percentage of […] was calculated as [1-(ODt/ODc)] x 100 % where ODt is the mean optical density of wells treated with the tested sample and ODc is the mean optical density of untreated cells. The relation between surviving cells and drug concentration was plotted to get the survival curve of each tumor cell line after treatment with the specified compound. The 50 % inhibitory concentration (IC50), the concentration required to cause toxic effects in 50 % of intact cells, was estimated from graphic plots.
(§2) The in vitro cytotoxic activity was performed by MTT assay (Mosmann, 1983[42]; Alley et al., 1988[6]) against three human carcinoma cell lines: Human colon carcinoma (HCT-116), human breast adenocarcinoma (MCF-7), and human hepatocellular carcinoma (HEPG-2).

[2] = test system: human breast adenocarcinoma (MCF-7); assay: Cytotoxic screening; type: cell-based; conditions: for IC50: Homo sapiens, MCF7, read-out: IC50 MCF-7
Protocol: as §1, §2

[3] = test system: human hepatocellular carcinoma (HEPG-2); assay: Cytotoxic screening; type: cell-based; conditions: HepG2, read-out: IC50 HepG-2
Protocol: as §1, §2

[4] = test system: Aspergillus fumigatus (RCMB 02568); assay: Well diffusion assay (inhibition zone); type: cell-based; conditions: RCMB02568, 5 mg/mL in DMSO, fungi, read-out: Inhibition Zone (IZ) diameter, A.F
Protocol: (§3) The microorganism inoculums were uniformly spread using sterile cotton swabs on a sterile Petri dish malt extract agar (for fungi) and nutrient agar (for bacteria). One hundred cubic millimeters of each sample was added to each well (10 mm-diameter holes were cut in the agar gel, 20 mm apart from one another). The systems were incubated for 24-48 h at 37 °C (for bacteria) and at 28 °C (for fungi). After incubation, the microorganism growth was observed. Inhibition zones of the bacterial and fungal growth were measured in millimeters. Tests were performed in triplicate (Cappuccino and Sherman, 1999[12]; Vanden Berghe and Vlientinck, 1991[62]).
(§4) All the newly synthesized compounds described in this report were screened for both antibacterial and antifungal activity via the reported agar diffusion well method (Vanden Berghe and Vlietinck, 1991[62]). The inhibition zones and minimum inhibitory concentrations (MIC) were determined by the serial dilution method (Cappuccino and Sherman, 1999[12]). The antimicrobial activity of the synthesized compounds was tested against a broad panel of microorganisms including two Gram-positive bacteria: Streptococcus pneumoniae (RCMB 010010) and Bacillus subtilis (RCMB 010067), two Gram-negative bacteria: Pseudomonas aeruginosa (RCMB 010043) and Escherichia coli (RCMB 010052), and four fungi: Aspergillus fumigatus (RCMB 02568), Syncephalastrum racemosum (RCMB 05922), Geotricum candidum (RCMB 05097), and Candida albicans (RCMB 05036). Ampicillin, ciprofloxacin, gentamicin and amphotericin B were used as positive control drugs (Atta-ur-Rahman and Thomsen, 2001[7]; Smania et al., 1999[57]). […] While in the case of Gm-ve bacteria, they had weak activity. In addition, certain strains of fungi were sensitive to tested compounds with an IZ range from 12-25 except Candida albicans.

[5] = test system: Bacillus subtilis (RCMB 010067); assay: Well diffusion assay (inhibition zone); type: cell-based; conditions: RCMB010067, 5 mg/mL in DMSO, Gm+ve, read-out: Inhibition Zone (IZ) diameter, B.S
Protocol: as §3, §4

[6] = test system: Escherichia coli (RCMB 010052); assay: Well diffusion assay (inhibition zone); type: cell-based; conditions: RCMB010052, 5 mg/mL in DMSO, Gm-ve, read-out: Inhibition Zone (IZ) diameter, E.C
Protocol: as §3, §4

[7] = test system: Geotricum candidum (RCMB 05097); assay: Well diffusion assay (inhibition zone); type: cell-based; conditions: 5 mg/mL in DMSO; fungi; read-out: Inhibition Zone (IZ) diameter, G.C
Protocol: as §3, §4

[8] = test system: Streptococcus pneumoniae (RCMB 010010); assay: Well diffusion assay (inhibition zone); type: cell-based; conditions: RCMB010010, 5 mg/mL in DMSO, Gm+ve, read-out: Inhibition Zone (IZ) diameter, S.P
Protocol: as §3, §4

[9] = test system: Syncephalastrum racemosum (RCMB 05922); assay: Well diffusion assay (inhibition zone); type: cell-based; conditions: RCMB05922, 5 mg/mL in DMSO, fungi, read-out: Inhibition Zone (IZ) diameter, S.R
Protocol: as §3, §4

Compound | IC50 [1] | IC50 [2] | IC50 [3] | melting point | IC50 HCT-116 [1] | IC50 MCF-7 ([2]; MCF-7) | zone of inhibition at 5000 µg/mL [4] | zone of inhibition at 5000 µg/mL [5] | zone of inhibition at 5000 µg/mL [6] | zone of inhibition at 5000 µg/mL [7] | zone of inhibition at 5000 µg/mL [8] | zone of inhibition at 5000 µg/mL [9]
N#CC1=C(N)Oc2c(N)cc3ccccc3c2C1c1ccc(Cl)cc1Cl (centres unmarked) [4e, 3,5-Diamino-1-(2,4-dichloro-phenyl)-1H-benzo[f]chromene-2-carbonitrile] | 2 µg/mL (≈ 5.23 µM) | 1.5 µg/mL (≈ 3.92 µM) | 1 µg/mL (≈ 2.62 µM) | 278 °C |  |  |  |  |  |  |  | 
N#CC1=C(N)Oc2c(N)cc3ccccc3c2C1c1ccc(F)cc1F (centres unmarked) [4f, 3,5-Diamino-1-(2,4-difluoro-phenyl)-1H-benzo[f]chromene-2-carbonitrile] | 9.25 µg/mL (≈ 26.5 µM) | 6.38 µg/mL (≈ 18.3 µM) | 5.22 µg/mL (≈ 14.9 µM) | 282 °C |  |  |  |  |  |  |  | 
N#CC1=C(N)Oc2c(N)cc3ccccc3c2C1c1cccc(C(F)(F)F)c1F (centres unmarked) [4g, 3,5-Diamino-1-(2-fluoro-3-trifluoromethyl-phenyl)-1H-benzo[f]chromene-2-carbonitrile] | 30 µg/mL (≈ 75.1 µM) | 53.5 µg/mL (≈ 134 µM) | 32.4 µg/mL (≈ 81.1 µM) | 202 °C |  |  |  |  |  |  |  | 
COc1cc(C2C(C#N)=C(N)Oc3c(N)cc4ccccc4c32)cc(OC)c1OC (centres unmarked) [4h, 3,5-Diamino-1-(3,4,5-trimethoxy-phenyl)-1H-benzo[f]chromene-2-carbonitrile] | 500 µg/mL (≈ 1240 µM) | 500 µg/mL (≈ 1240 µM) | 500 µg/mL (≈ 1240 µM) | 225 °C |  |  |  |  |  |  |  | 
N#CC1=C(N)Oc2c(N)cc3ccccc3c2C1c1ccsc1 (centres unmarked) [4i, 3,5-Diamino-1-thiophen-3-yl-1H-benzo[f]chromene-2-carbonitrile] | 500 µg/mL (≈ 1570 µM) | 386 µg/mL (≈ 1210 µM) | 188 µg/mL (≈ 589 µM) | 230 °C |  |  |  |  |  |  |  | 
O=c1[nH]cc(F)c(=O)[nH]1 [5-Flurouracil, reference compound] |  |  |  |  | 4.3 µg/mL (≈ 33.1 µM) | 3.9 µg/mL (≈ 30 µM) |  |  |  |  |  | 
CC(C)(C)c1ccc(C2C(C#N)=C(N)Oc3c2ccc2c(N)cccc32)cc1 (centres unmarked) [7a, 2,7-Diamino-4-(4-tert-butyl-phenyl)-4H-benzo[h]chromene-3-carbonitrile] | 14.3 µg/mL (≈ 38.7 µM) | 17.5 µg/mL (≈ 47.4 µM) | 11.9 µg/mL (≈ 32.2 µM) | 210 °C |  |  | 15.4 mm | 16.9 mm | 13.8 mm | 15.8 mm | 16.1 mm | 14.1 mm
N#CC1=C(N)Oc2c(ccc3c(N)cccc23)C1c1cccs1 (centres unmarked) [7e, 2,7-Diamino-4-thiophen-2-yl-4H-benzo[h]chromene-3-carbonitrile] | 39.9 µg/mL (≈ 125 µM) | 61.9 µg/mL (≈ 194 µM) | 33.2 µg/mL (≈ 104 µM) | 232 °C |  |  | 16.4 mm | 18.2 mm | 15.2 mm | 16.9 mm | 16.3 mm | 14.2 mm
Cc1ccc(N=Nc2cc3c(cc2O)OC(N)=C(C#N)C3c2ccc(F)cc2)cc1 (centres unmarked) [13a, 2-Amino-4-(4-fluoro-phenyl)-7-hydroxy-6-p-tolylazo-4H-chromene-3-carbonitrile] |  |  |  | 203 °C |  |  | 20.4 mm | 23.7 mm | 14.4 mm | 21.4 mm | 19.6 mm | 17.3 mm
N#CC1=C(N)Oc2cc(O)c(N=Nc3ccc([N+](=O)[O-])cc3)cc2C1c1ccc(F)cc1 (centres unmarked) [13c, 2-Amino-4-(4-fluoro-phenyl)-7-hydroxy-6-(4-nitro-phenylazo)-4H-chromene-3-carbonitrile] | 12.2 µg/mL (≈ 28.3 µM) | 10.8 µg/mL (≈ 25 µM) | 10.4 µg/mL (≈ 24.1 µM) | 254 °C |  |  | 13.6 mm | 14.3 mm | 9.4 mm |  | 14.6 mm | 10.4 mm
N#CC1=C(N)Oc2cc(O)c(N=Nc3ccc(S(=O)(=O)O)cc3)cc2C1c1ccccc1F (centres unmarked) [13f, 4-[2-Amino-3-cyano-4-(2-fluoro-phenyl)-7-hydroxy-4H-chromen-6-ylazo]-benzenesulfonic acid] | 100 µg/mL (≈ 214 µM) | 79.8 µg/mL (≈ 171 µM) | 68.4 µg/mL (≈ 147 µM) | 290 °C |  |  | 10.3 mm | 13.4 mm | 12.1 mm | 13.4 mm | 10.6 mm | 11.6 mm
COc1cccc2c1C(=O)c1c(O)c3c(c(O)c1C2=O)C[C@@](O)(C(=O)CO)C[C@@H]3O[C@H]1C[C@H](N)[C@H](O)[C@H](C)O1 [Doxorubicin, reference compound] | 0.88 µg/mL (≈ 1.62 µM) | 1.02 µg/mL (≈ 1.88 µM) | 1.19 µg/mL (≈ 2.19 µM) |  |  |  |  |  |  |  |  | 
CC[C@]1(O)C[C@@H]2CN(CCc3c([nH]c4ccccc34)[C@@](C(=O)OC)(c3cc4c(cc3OC)N(C)[C@H]3[C@@](O)(C(=O)OC)[C@H](OC(C)=O)[C@]5(CC)C=CCN6CC[C@]43[C@@H]65)C2)C1 [Vinblastine, reference compound] | 2.6 µg/mL (≈ 3.21 µM) | 6.1 µg/mL (≈ 7.52 µM) | 4.6 µg/mL (≈ 5.67 µM) |  |  |  |  |  |  |  |  | 
